Measured values reported in patent US20100184853A1, “TERPENES WITH ANTIFUNGAL ACTIVITY AGAINST MALASSEZIA YEASTS” (INSTITUTO BIOMAR, S.A., priority 2007, published 2010).

System: Malassezia furfur CBS 1878
Test: Antifungal disk diffusion susceptibility test
Type: cell-based
Settings: 15 nmol per 6 mm paper disc; ML2 plates; two days at 30° C.
Procedure: Antifungal activity was tested against Malassezia furfur CBS 1878.
Malassezia furfur was grown on ML2 agar plates containing potato dextrose agar 4.2%, ox bile 0.8%, glycerol 1% (v:v), olive oil 1% (v:v), tween 60 0.5% (v:v) for two days, at 30° C., as stock culture.
An area of 2 cm^2 of a growing plate of Malassezia furfur stock culture was scraped using a sterile loop. Biomass was homogenated in 1 ml glycerol 20%. A volume of 100 μl of the glycerol homogenate was spread on testing ML2 plates.
Each test compound was dissolved in distilled water and added on blank paper discs (6 mm, diameter) on the inoculated plates. Plates were incubated for two days at 30° C. Inhibition circles around the discs (halo) were used as activity measure.
Ketoconazol was used as inhibition control.
The test was carried out at 15 nmol for each compound. Antifungal activities are shown at table 1.

In the case of `COC1C(=O)CCC(O)(CCl)C1(O)C1(C)OC1CC=C(C)C` (stereo not shown) [Chlovalicin], the “Halo (inhibition circle around the disc)” value was 35 mm.

With `CO[C@@H]1[C@H](OC(=O)/C=C/C=C/C=C/C=C/C(=O)O)CC[C@]2(CO2)[C@H]1[C@@]1(C)O[C@@H]1CC=C(C)C` [Fumagillin] the “Halo (inhibition circle around the disc)” value was 27 mm.

For `CC(=O)N1CCN(c2ccc(OCC3COC(Cn4ccnc4)(c4ccc(Cl)cc4Cl)O3)cc2)CC1` (stereo not shown) [Ketoconazol], the “Halo (inhibition circle around the disc)” value was 23 mm.

With `CO[C@@H]1C(=O)CC[C@]2(CO2)[C@@]1(O)[C@@]1(C)O[C@@H]1CC=C(C)C` [Ovalicin] the “Halo (inhibition circle around the disc)” value was 46 mm.
